Assay results as given in patent US20210255193A1, “LYSINE REACTIVE PROBES AND USES THEREOF” (The Scripps Research Institute, priority 2017, published 2021).

Legend:
Test in all cases: competitive isoTOP-ABPP
Format in all cases: binding
[1] = target: T1, DNMT1 DNA (cytosine-5)-methyltransferase 1 (Homo sapiens, UniProt P26358); conditions: for isoTOP-ABPP ratio (R) at liganded lysine P26358_K45: sol, 231
T1 construct: isoTOP-ABPP experiments performed in cell lysates (in vitro); endogenous in cells; host or cells: soluble proteome of human cancer cell lines (MDA-MB-231; Ramos and Jurkat also prepared)
Summary of the method: (§1)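 Cell lysate treated in vitro with fragments (50 μM activated esters, 100 μM guanidinylating agents) or DMSO, labelled 1 h at ambient temperature with 0.1 mM STP-alkyne, CuAAC-tagged with light/heavy TEV tags, analysed by MS. R = DMSO/compound MS1 peak-area ratio; lysines with R≥4 called liganded.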

[2] = target: T2, ARL6IP1 ADP-ribosylation factor-like protein 6-interacting (Homo sapiens, UniProt Q15041); conditions: for isoTOP-ABPP ratio (R) at liganded lysine Q15041_K188: sol, 231
T2 construct: isoTOP-ABPP experiments performed in cell lysates (in vitro); endogenous in cells; host or cells: soluble proteome of human cancer cell lines (MDA-MB-231; Ramos and Jurkat also prepared)
Summary of the method: as §1

[3] = target: T3, CDK2 Cyclin-dependent kinase 2 (Homo sapiens, UniProt P24941); conditions: for isoTOP-ABPP ratio (R) at liganded lysine P24941_K33: sol, 231
T3 construct: isoTOP-ABPP experiments performed in cell lysates (in vitro); endogenous in cells; host or cells: soluble proteome of human cancer cell lines (MDA-MB-231; Ramos and Jurkat also prepared)
Summary of the method: as §1

[4] = target: T4, NT5DC1 5-nucleotidase domain-containing protein 1 (Homo sapiens, UniProt Q5TFE4); conditions: for isoTOP-ABPP ratio (R) at liganded lysine Q5TFE4_K123: 50 uM, in vitro, sol, 231; for isoTOP-ABPP ratio, lysine Q5TFE4_K123: 100 uM_231_sol_in vitro
T4 construct: isoTOP-ABPP experiments performed in cell lysates (in vitro); endogenous in cells; host or cells: soluble proteome of human cancer cell lines (MDA-MB-231; Ramos and Jurkat also prepared)
T4 sequence (Q5TFE4 1-455): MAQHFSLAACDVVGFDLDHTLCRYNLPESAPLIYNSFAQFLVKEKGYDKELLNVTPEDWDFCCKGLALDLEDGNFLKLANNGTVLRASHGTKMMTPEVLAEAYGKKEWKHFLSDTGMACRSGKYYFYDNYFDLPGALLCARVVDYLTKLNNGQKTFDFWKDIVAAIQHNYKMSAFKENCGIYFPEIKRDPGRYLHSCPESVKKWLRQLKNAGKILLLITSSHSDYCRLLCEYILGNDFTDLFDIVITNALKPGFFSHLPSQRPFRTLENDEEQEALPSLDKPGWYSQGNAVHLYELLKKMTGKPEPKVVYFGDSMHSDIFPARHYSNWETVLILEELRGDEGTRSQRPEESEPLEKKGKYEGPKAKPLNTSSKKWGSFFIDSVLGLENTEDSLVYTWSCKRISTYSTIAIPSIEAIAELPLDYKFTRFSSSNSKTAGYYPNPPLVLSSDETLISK
Summary of the method: as §1

[5] = target: T5, SLC25A5 ADP/ATP translocase 2 (Homo sapiens, UniProt P05141); conditions: for isoTOP-ABPP ratio (R) at liganded lysine P05141_K23: 50 uM, in vitro, sol, 231
T5 construct: isoTOP-ABPP experiments performed in cell lysates (in vitro); endogenous in cells; host or cells: MDA-MB-231 soluble lysate
T5 sequence (P05141 1-298): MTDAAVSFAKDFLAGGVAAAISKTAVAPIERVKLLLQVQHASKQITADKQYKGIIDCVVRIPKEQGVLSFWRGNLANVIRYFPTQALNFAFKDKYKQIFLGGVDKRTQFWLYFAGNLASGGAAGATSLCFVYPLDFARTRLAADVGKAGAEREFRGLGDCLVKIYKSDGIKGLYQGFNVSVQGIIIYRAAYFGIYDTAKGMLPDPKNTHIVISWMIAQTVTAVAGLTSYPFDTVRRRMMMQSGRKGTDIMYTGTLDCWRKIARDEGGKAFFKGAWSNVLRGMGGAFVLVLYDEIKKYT
Summary of the method: as §1

[6] = target: T6, NUDT22 Nucleoside diphosphate-linked moiety X motif 22 (Homo sapiens, UniProt Q9BRQ3); conditions: for isoTOP-ABPP ratio (R) at liganded lysine Q9BRQ3_K60: 50 uM, in vitro, sol, 231
T6 construct: isoTOP-ABPP experiments performed in cell lysates (in vitro); endogenous in cells; host or cells: soluble proteome of human cancer cell lines (MDA-MB-231; Ramos and Jurkat also prepared)
T6 sequence (Q9BRQ3 1-303): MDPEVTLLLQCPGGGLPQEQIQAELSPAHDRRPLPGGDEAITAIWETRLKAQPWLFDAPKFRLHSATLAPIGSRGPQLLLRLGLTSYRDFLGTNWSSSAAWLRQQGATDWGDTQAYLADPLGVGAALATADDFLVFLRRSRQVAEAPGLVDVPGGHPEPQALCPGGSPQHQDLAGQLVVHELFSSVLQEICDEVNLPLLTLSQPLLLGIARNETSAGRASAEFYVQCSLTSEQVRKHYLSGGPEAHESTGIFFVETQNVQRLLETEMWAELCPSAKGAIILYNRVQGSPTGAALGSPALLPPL
Summary of the method: as §1

T1 sequence (P26358 whole entry): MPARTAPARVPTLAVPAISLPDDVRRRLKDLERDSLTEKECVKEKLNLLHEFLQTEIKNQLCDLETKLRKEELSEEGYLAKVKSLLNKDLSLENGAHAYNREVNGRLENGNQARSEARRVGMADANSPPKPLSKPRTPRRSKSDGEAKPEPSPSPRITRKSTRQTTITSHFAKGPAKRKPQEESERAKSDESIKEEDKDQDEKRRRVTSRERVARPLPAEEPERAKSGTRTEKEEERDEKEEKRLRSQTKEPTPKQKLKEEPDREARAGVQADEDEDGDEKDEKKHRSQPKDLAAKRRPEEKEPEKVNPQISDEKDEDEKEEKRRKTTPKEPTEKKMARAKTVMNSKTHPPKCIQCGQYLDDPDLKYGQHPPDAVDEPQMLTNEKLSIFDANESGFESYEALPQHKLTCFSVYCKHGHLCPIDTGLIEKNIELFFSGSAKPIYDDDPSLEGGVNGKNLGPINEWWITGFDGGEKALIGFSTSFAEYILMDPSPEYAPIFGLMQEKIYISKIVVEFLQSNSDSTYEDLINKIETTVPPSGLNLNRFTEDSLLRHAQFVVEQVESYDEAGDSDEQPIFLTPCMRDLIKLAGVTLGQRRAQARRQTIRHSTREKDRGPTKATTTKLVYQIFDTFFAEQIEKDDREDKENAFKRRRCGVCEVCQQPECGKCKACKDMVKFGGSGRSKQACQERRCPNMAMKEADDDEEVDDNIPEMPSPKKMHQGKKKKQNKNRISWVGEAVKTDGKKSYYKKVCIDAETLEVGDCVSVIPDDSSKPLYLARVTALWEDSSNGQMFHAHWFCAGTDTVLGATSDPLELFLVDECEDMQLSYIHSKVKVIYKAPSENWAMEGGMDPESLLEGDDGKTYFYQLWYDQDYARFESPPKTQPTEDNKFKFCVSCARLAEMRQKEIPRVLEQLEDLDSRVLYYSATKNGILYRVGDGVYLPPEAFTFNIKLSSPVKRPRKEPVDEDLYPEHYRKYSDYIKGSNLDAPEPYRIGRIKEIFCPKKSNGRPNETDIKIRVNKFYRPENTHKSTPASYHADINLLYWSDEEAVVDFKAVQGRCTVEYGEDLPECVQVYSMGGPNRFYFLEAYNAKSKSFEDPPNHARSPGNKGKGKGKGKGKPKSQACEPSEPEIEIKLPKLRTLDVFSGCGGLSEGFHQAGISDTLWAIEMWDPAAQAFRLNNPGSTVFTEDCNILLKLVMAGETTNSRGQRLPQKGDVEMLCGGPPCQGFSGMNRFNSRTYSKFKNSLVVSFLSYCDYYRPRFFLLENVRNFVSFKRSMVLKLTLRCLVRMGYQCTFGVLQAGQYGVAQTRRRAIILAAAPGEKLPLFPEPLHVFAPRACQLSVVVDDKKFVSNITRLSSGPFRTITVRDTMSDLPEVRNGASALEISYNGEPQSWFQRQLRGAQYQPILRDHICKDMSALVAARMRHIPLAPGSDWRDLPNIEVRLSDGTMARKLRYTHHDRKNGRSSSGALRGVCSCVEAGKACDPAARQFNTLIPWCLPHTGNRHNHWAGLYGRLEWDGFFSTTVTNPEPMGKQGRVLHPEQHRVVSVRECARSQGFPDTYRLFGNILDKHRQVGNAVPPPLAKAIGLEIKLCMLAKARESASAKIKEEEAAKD
T2 sequence (Q15041 whole entry): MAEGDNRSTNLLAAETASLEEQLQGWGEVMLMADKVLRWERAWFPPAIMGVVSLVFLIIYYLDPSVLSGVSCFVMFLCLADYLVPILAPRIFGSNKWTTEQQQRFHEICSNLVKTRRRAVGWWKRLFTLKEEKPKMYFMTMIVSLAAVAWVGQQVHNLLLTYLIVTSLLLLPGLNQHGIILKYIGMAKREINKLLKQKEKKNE

With `COc1cc(CCC(=O)Oc2ccc([N+](=O)[O-])cc2[N+](=O)[O-])cc(OC)c1OC` [fragment 33, 2,4-Dinitrophenyl 3-(3,4,5-trimethoxyphenyl)propanoate] as the molecule, how does the “isoTOP-ABPP reactivity ratio at lysine P26358_K45” value ([1]; 50 uM, 231 sol, in vitro) read?
The value was 0.9.

And the “isoTOP-ABPP reactivity ratio at lysine Q15041_K188” value ([2]; 50 uM, 231 sol, in vitro)?
Its value is 1.3.

What about the “isoTOP-ABPP reactivity ratio at lysine P24941_K33” value ([3]; 50 uM, 231 sol, in vitro) of the same molecule?
Its value is 0.7.

For `O=C(CCc1coc2cc(F)ccc2c1=O)Oc1ccc([N+](=O)[O-])cc1[N+](=O)[O-]` [fragment 36, 2,4-Dinitrophenyl 3-(7-fluoro-4-oxo-4H-chromen-3-yl)propanoate], which “isoTOP-ABPP ratio (R) at liganded lysine P26358_K45” value ([1]; 50 uM, in vitro) is on record?
Its value is 0.8.

What about the “isoTOP-ABPP ratio (R) at liganded lysine Q5TFE4_K123” value [4] of the same molecule?
The value was 20.0.

What about the “isoTOP-ABPP ratio (R) at liganded lysine P05141_K23” value [5] of the same molecule?
Its value is 1.1.

What about the “isoTOP-ABPP ratio (R) at liganded lysine Q15041_K188” value ([2]; 50 uM, in vitro) of the same molecule?
Its value is 1.6.

What does the source list for `O=C(Oc1ccc([N+](=O)[O-])cc1[N+](=O)[O-])c1ccc(-c2ccccc2)cc1` [fragment 37, 2,4-Dinitrophenyl [1,1′-biphenyl]-4-carboxylate]?
isoTOP-ABPP ratio (R) at liganded lysine P26358_K45 ([1]; 50 uM, in vitro): 0.7; isoTOP-ABPP ratio (R) at liganded lysine Q5TFE4_K123 [4]: 1.8; isoTOP-ABPP ratio (R) at liganded lysine P05141_K23 [5]: 1.2; isoTOP-ABPP ratio (R) at liganded lysine Q15041_K188 ([2]; 50 uM, in vitro): 1.8; isoTOP-ABPP ratio (R) at liganded lysine Q9BRQ3_K60 [6]: 1.0; isoTOP-ABPP ratio (R) at liganded lysine P24941_K33 ([3]; 50 uM, in vitro): 0.9

How did the “isoTOP-ABPP ratio (R) at liganded lysine P26358_K45” value ([1]; 50 uM, in vitro) turn out when `O=C(Oc1ccc([N+](=O)[O-])cc1[N+](=O)[O-])c1ccc(Oc2ccccc2)cc1` [fragment 39, 2,4-Dinitrophenyl 4-phenoxybenzoate] was run?
The value was 1.0.

What about the “isoTOP-ABPP ratio (R) at liganded lysine P05141_K23” value [5] of the same molecule?
Its value is 0.9.

What about the “isoTOP-ABPP ratio (R) at liganded lysine Q15041_K188” value ([2]; 50 uM, in vitro) of the same molecule?
Its value is 1.7.

And the “isoTOP-ABPP ratio (R) at liganded lysine Q9BRQ3_K60” value [6]?
Its value is 0.9.

What about the “isoTOP-ABPP ratio (R) at liganded lysine P24941_K33” value ([3]; 50 uM, in vitro) of the same molecule?
The value was 1.0.

How did the “isoTOP-ABPP ratio (R) at liganded lysine Q5TFE4_K123” value [4] turn out when `O=C(Oc1ccc([N+](=O)[O-])cc1[N+](=O)[O-])C(c1ccccc1)(c1ccccc1)c1ccccc1` [fragment 42, 2,4-Dinitrophenyl 2,2,2-triphenylacetate] was run?
The value was 0.6.

What about the “isoTOP-ABPP ratio (R) at liganded lysine P05141_K23” value [5] of the same molecule?
The value was 1.1.

What about the “isoTOP-ABPP ratio (R) at liganded lysine Q15041_K188” value ([2]; 50 uM, in vitro) of the same molecule?
Its value is 1.1.

What about the “isoTOP-ABPP ratio (R) at liganded lysine Q9BRQ3_K60” value [6] of the same molecule?
The value was 0.8.

And the “isoTOP-ABPP ratio (R) at liganded lysine P24941_K33” value ([3]; 50 uM, in vitro)?
Its value is 0.9.

`N#Cc1ccc(C(=O)Oc2ccc([N+](=O)[O-])cc2[N+](=O)[O-])cc1` [fragment 44, 2,4-Dinitrophenyl 4-cyanobenzoate] was tested. Which “isoTOP-ABPP ratio, lysine P26358_K45” value ([1]; 50 uM_231_sol_in vitro) did it give?
The value was 0.7.

And the “isoTOP-ABPP ratio, lysine P05141_K23” value ([5]; 50 uM_231_sol_in vitro)?
The value was 1.1.

And the “isoTOP-ABPP ratio, lysine Q15041_K188” value ([2]; 50 uM_231_sol_in vitro)?
The value was 1.1.

And the “isoTOP-ABPP ratio, lysine P24941_K33” value ([3]; 50 uM_231_sol_in vitro)?
Its value is 1.1.

For `O=C(Oc1c(F)c(F)cc(F)c1F)c1cc(C(F)(F)F)cc(C(F)(F)F)c1` [fragment 48, 2,3,5,6-Tetrafluorophenyl 3,5-bis(trifluoromethyl)benzoate], which “isoTOP-ABPP ratio, lysine P26358_K45” value ([1]; 50 uM_231_sol_in vitro) is on record?
Its value is 1.1.

What about the “isoTOP-ABPP ratio, lysine P05141_K23” value ([5]; 50 uM_231_sol_in vitro) of the same molecule?
Its value is 1.2.

And the “isoTOP-ABPP ratio, lysine Q15041_K188” value ([2]; 50 uM_231_sol_in vitro)?
The value was 3.5.

What does the source list for `COC(=O)NC(=NC(=O)OCC1c2ccccc2-c2ccccc21)n1cccn1` [fragment 49, N-Methoxycarbonyl-N′-9-fluorenylmethoxycarbonyl-pyrazole-1-carboxamidine]?
isoTOP-ABPP ratio, lysine P26358_K45 ([1]; 100 uM_231_sol_in vitro): 1.3; isoTOP-ABPP ratio, lysine Q5TFE4_K123 [4]: 1.3

Which “isoTOP-ABPP ratio, lysine Q5TFE4_K123” value [4] does the source give for `CC(C)(C)OC(=O)N=C(NC(=O)OC(C)(C)C)n1cccn1` [fragment 50, reference compound] here?
Its value is 1.1.

What about the “isoTOP-ABPP ratio, lysine P05141_K23” value ([5]; 100 uM_231_sol_in vitro) of the same molecule?
Its value is 12.6.

And the “isoTOP-ABPP ratio, lysine Q15041_K188” value ([2]; 100 uM_231_sol_in vitro)?
Its value is 3.4.

What about the “isoTOP-ABPP ratio, lysine Q9BRQ3_K60” value ([6]; 100 uM_231_sol_in vitro) of the same molecule?
The value was 1.0.

What about the “isoTOP-ABPP ratio, lysine P24941_K33” value ([3]; 100 uM_231_sol_in vitro) of the same molecule?
The value was 2.3.
